Experimental data from patent US20220031800A1, “PEPTIDES FOR TREATING NON-EXUDATIVE MACULAR DEGENERATION AND OTHER DISORDERS OF THE EYE” (Allegro Pharmaceuticals, LLC, priority 2019, published 2022).
Square brackets hold non-standard residues; d marks the D form. Peptide text beside a SMILES is read from it. Cya = N[C@@H](CS(=O)(=O)O)C(=O)O

Tested on: study eye of subjects with intermediate non-exudative AMD
Test: SD-OCT Analysis 2 (thickness, volume, map coverage of retinal layers)
Assay type: in vivo, human
Experimental: Numerous study assessments were conducted at various time points throughout the study. Included among these study assessments were; refractive eye examinations, determinations of BCVA AND low-luminance BCVA, Lanthony D-15 color vision test, measurement of intraocular pressure (IOP), Indirect ophthalmoscopy/dilated fundus examinations and spectral-domain optical coherence tomography (SD-OCT). Also, blood and saliva samples were obtained from each subject for genetic analysis. The above-listed study assessments were performed at the time points indicated in Table 1, below: The OCT scans were analyzed by two (2) unrelated experts. In Analysis #2, the OCT images of study eyes were analyzed to determine mean thickness and mean volume of numerous retinal subfields and layer segments at baseline and at Week 12 for sham eyes and at baseline and at Week 32 for risuteganib eyes, to document any significant differences between groups of eyes based on baseline measurements or changes from baseline in those measurements. In addition to the quantitative analysis of OCT images, OCT Analysis #2 included qualitative assessment of the OCT images to identify GA, pseudodrusen, and disruption of the ELM and EZ layers. FIGS. 9A, 9B and 9C illustrate the level of varying pathology within the ELM based on quantitative mapping that were also assessed, with FIG. 9A (left) showing no ELM disruption, FIG. 9B (center) showing segmental disruption, and FIG. 9C showing diffuse disruption.

[1] = baseline to Week 32, risuteganib arm
[2] = baseline to Week 32, risuteganib arm, paired-eye analysis
[3] = baseline to Week 32, risuteganib nonresponder eyes
[4] = baseline to Week 32, risuteganib responder eyes
[5] = baseline to Week 32, risuteganib super-responder eyes
[6] = change from baseline at Week 32, Risuteganib Nonresponder eyes
[7] = change from baseline at Week 32, Risuteganib Responder eyes

With `C[C@@H](O)[C@H](NC(=O)[C@H](CS(=O)(=O)O)NC(=O)CNC(=O)[C@H](CCCNC(=N)N)NC(=O)CN)C(=O)N1CCC[C@H]1C(=O)O` [risuteganib, Glycyl-L-arginylglycyl-3-sulfo-L-alanyl-L-threonyl-L-proline] (H-GRG[Cya]TP-OH) the “Change in ELM-RPE mid subfield volume” value [1] was −0.002 mm^3, the “Change in ONL-RPE central subfield volume” value [1] was −0.005 mm^3 and the “Change in ONL-RPE mid subfield volume” value [1] was −0.020 mm^3. The “Change in mean ONL-RPE mid subfield thickness” value [1] was −6.441 μm, the “Change in mean total retinal mid subfield thickness” value [1] was −2.548 μm and the “Change in total retinal mid subfield volume” value [1] was −0.008 mm^3. The “Difference in map coverage, 0 μm RPE-BM” value [1] was 1.282%, the “Difference in map coverage, 50 μm RPE-BM” value [1] was −2.644% and the “Difference in map coverage, 150 μm RPE-BM” value (“Difference … 150 μm RPE-BM” below) [1] was 2.739%. The “Change in mean ELM-RPE central subfield thickness” value [2] was −2.912 μm, the “Change in mean ONL-RPE central subfield thickness” value [2] was −7.216 μm and the “Change in ONL-RPE mid subfield volume” value [3] was −0.020 mm^3. For the same molecule, the “Change in RPE-BM volume” value [3] was 0.037 mm^3, the “Change in mean ONL-RPE mid subfield thickness” value [3] was −6.320 μm and the “Change in mean total retinal central subfield thickness” value [3] was −5.981 μm. For the same molecule, the “Change in mean total retinal mid subfield thickness” value [3] was −4.046 μm, the “Change in total retinal central subfield volume” value [3] was −0.004 mm^3 and the “Change in total retinal mid subfield volume” value [3] was −0.012 mm^3. For the same molecule, the “Change in total retinal volume” value [3] was 0.091 mm^3, the “Difference in map coverage, <10 μm EZ” value [3] was 1.332% and the “Difference in map coverage, <20 μm EZ” value [3] was 1.288%. For the same molecule, the “Change in ELM-RPE central subfield volume” value [4] was −0.002 mm^3, the “Change in RPE-BM volume” value [4] was −0.049 mm^3 and the “Difference in map coverage, 50 μm RPE-BM” value [4] was −3.494%. For the same molecule, the “Difference … 150 μm RPE-BM” value [4] was 3.335%, the “Change in mean ELM-RPE central subfield thickness” value (baseline to Week 32, risuteganib responder eyes, paired-eye analysis) was −3.102 μm and the “Change in ELM-RPE central subfield volume” value [5] was −0.003 mm^3. The “Difference … 150 μm RPE-BM” value [5] was 2.943%, the “Change in mean ELM-RPE central subfield thickness” value (baseline to Week 32, risuteganib super-responder eyes, paired-eye analysis) was −3.461 μm and the “Change in mean thickness, ELM-EZ central subfield” value [6] was −1.332 μm. For the same molecule, the “Change in mean thickness, ELM-EZ mid subfield” value [6] was 0.754 μm, the “Change in mean thickness, ELM-RPE central subfield” value [6] was −2.722 μm and the “Change in mean thickness, ELM-RPE foveal center” value [6] was −12.189 μm. The “Change in mean thickness, ELM-RPE mid subfield” value [6] was −1.044 μm, the “Change in mean thickness, EZ-RPE central subfield” value [6] was −1.390 μm and the “Change in mean thickness, EZ-RPE foveal center” value [6] was −1.789 μm. The “Change in mean thickness, EZ-RPE mid subfield” value [6] was −1.798 μm, the “Change in mean thickness, Inner retina central subfield” value [6] was 1.896 μm and the “Change in mean thickness, Inner retina mid subfield” value [6] was 2.274 μm. The “Change in mean thickness, ONL-EZ central subfield” value [6] was −6.486 μm, the “Change in mean thickness, ONL-EZ mid subfield” value [6] was −4.522 μm and the “Change in mean thickness, ONL-RPE central subfield” value [6] was −7.877 μm. For the same molecule, the “Change in mean thickness, ONL-RPE foveal center” value [6] was −7.626 μm, the “Change in mean thickness, ONL-RPE mid subfield” value [6] was −6.320 μm and the “Change in mean thickness, RPE-BM central subfield” value [6] was −0.118 μm. For the same molecule, the “Change in mean thickness, RPE-BM foveal center” value [6] was −3.740 μm, the “Change in mean thickness, RPE-BM mid subfield” value [6] was 1.114 μm and the “Change in mean thickness, Total retinal central subfield” value [6] was −5.981 μm. The “Change in mean thickness, Total retinal foveal center” value [6] was −9.112 μm, the “Change in mean thickness, Total retinal mid subfield” value [6] was −4.046 μm and the “Change in volume, ELM-EZ central subfield” value [6] was −0.001 mm^3. The “Change in volume, ELM-EZ mid subfield” value [6] was 0.002 mm^3, the “Change in volume, ELM-RPE” value [6] was 0.009 mm^3 and the “Change in volume, ELM-RPE central subfield” value [6] was −0.002 mm^3. The “Change in volume, ELM-RPE mid subfield” value [6] was −0.003 mm^3, the “Change in volume, EZ-RPE” value [6] was 0.005 mm^3 and the “Change in volume, EZ-RPE central subfield” value [6] was −0.001 mm^3. For the same molecule, the “Change in volume, EZ-RPE mid subfield” value [6] was −0.006 mm^3, the “Change in volume, ONL-EZ central subfield” value [6] was −0.005 mm^3 and the “Change in volume, ONL-EZ mid subfield” value [6] was −0.014 mm^3. For the same molecule, the “Change in volume, ONL-RPE” value [6] was −0.026 mm^3, the “Change in volume, ONL-RPE central subfield” value [6] was −0.006 mm^3 and the “Change in volume, ONL-RPE mid subfield” value [6] was −0.020 mm^3. The “Change in volume, RPE-BM” value [6] was 0.037 mm^3, the “Change in volume, RPE-BM central subfield” value [6] was 0.000 mm^3 and the “Change in volume, RPE-BM mid subfield” value [6] was 0.004 mm^3. The “Change in volume, Total retinal” value [6] was 0.091 mm^3, the “Change in volume, Total retinal central subfield” value [6] was −0.004 mm^3 and the “Change in volume, Total retinal mid subfield” value [6] was −0.012 mm^3. The “Map coverage, 0 μm EZ” value [6] was 1.469%, the “Map coverage, 0 μm RPE-BM” value [6] was 1.465% and the “Map coverage, 10 μm EZ” value [6] was 1.332%. For the same molecule, the “Map coverage, 20 μm EZ” value [6] was 1.288%, the “Map coverage, 50 μm RPE-BM” value [6] was −1.794% and the “Map coverage, 150 μm RPE-BM” value [6] was 2.143%. For the same molecule, the “Map coverage, 250 μm RPE-BM” value [6] was 0.000%, the “Change in mean thickness, ELM-EZ central subfield” value [7] was −2.322 μm and the “Change in mean thickness, ELM-EZ mid subfield” value [7] was −0.967 μm. The “Change in mean thickness, ELM-RPE central subfield” value [7] was −3.102 μm, the “Change in mean thickness, ELM-RPE foveal center” value [7] was 0.000 μm and the “Change in mean thickness, ELM-RPE mid subfield” value [7] was −2.141 μm. The “Change in mean thickness, EZ-RPE central subfield” value [7] was −0.779 μm, the “Change in mean thickness, EZ-RPE foveal center” value [7] was 0.975 μm and the “Change in mean thickness, EZ-RPE mid subfield” value [7] was −1.174 μm. The “Change in mean thickness, Inner retina central subfield” value [7] was 5.864 μm, the “Change in mean thickness, Inner retina mid subfield” value [7] was 5.512 μm and the “Change in mean thickness, ONL-EZ central subfield” value [7] was −5.775 μm. For the same molecule, the “Change in mean thickness, ONL-EZ mid subfield” value [7] was −5.386 μm and the “Change in mean thickness, ONL-RPE central subfield” value [7] was −6.555 μm.
